Results published in patent US10590086B2, “Pharmaceutical compound” (IOmet Pharma Ltd., priority 2014, dated 2020).

Key:
TDO [1] = biological target: T1, TDO (Homo sapiens, UniProt P48775); assay: hTDO biochemical coupled assay; conditions: 330 μM L-tryptophan, read-out: hTDO biochemical assay pIC50 (converted)
IDO [2] = biological target: T2, IDO (Homo sapiens, UniProt P14902); assay: hIDO biochemical coupled assay; conditions: 45 μM L-tryptophan, read-out: hIDO biochemical assay pIC50 (converted)
TDO [3] = biological target: T1, TDO; assay: A172 kynurenine cell-based assay; design: This assay utilised cancer cells which expressed either TDO or IDO; endogenous in cells; host or cells: A172 (human glioblastoma); conditions: A172 human glioblastoma cells, 48 hours, read-out: A172 Kynurenine cell based assay pIC50 (converted)
Procedure, shortened: (§1)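 Readout: […] of cell supernatant 5 min after Erhlich's reagent, reporting kynurenine. Cells: A172 (TDO) or SKOV3 + 500 ng/ml IFN-γ (IDO), 48 h, 37° C, ± compound. Medium: phenol red-free RPMI, 10% FCS, 2 mM L-glutamine, 500 μM L-tryptophan.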

IDO [4] = biological target: T2, IDO; assay: SKOV3 kynurenine cell-based assay (IDO induced by IFN-γ); design: IDO expression was induced in the SKOV3 cells by the addition of 500 ng/ml IFN-γ; endogenous in cells; host or cells: SKOV3 (human ovarian adenocarcinoma), induced with IFN-γ; conditions: 48 hours, read-out: SKOV3 Kynurenine cell based assay pIC50 (converted)
Procedure, shortened: as §1

[5] = SKOV3 human ovarian adenocarcinoma cells, 500 ng/ml IFN-γ, 500 μM L-tryptophan
[6] = SKOV3 cells, IDO induced by 500 ng/ml IFN-γ

T2 sequence (P14902 whole entry): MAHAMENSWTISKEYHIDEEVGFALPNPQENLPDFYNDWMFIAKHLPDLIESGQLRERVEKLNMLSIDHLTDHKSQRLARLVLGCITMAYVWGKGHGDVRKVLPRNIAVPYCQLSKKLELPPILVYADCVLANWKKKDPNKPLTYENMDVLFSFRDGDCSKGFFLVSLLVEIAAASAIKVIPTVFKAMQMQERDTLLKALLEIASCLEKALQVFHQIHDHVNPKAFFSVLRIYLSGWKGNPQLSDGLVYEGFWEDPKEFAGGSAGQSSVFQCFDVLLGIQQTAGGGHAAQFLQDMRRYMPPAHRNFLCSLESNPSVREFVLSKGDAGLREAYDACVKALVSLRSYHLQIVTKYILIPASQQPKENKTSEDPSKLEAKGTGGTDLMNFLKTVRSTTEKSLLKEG
T1 sequence (P48775 whole entry): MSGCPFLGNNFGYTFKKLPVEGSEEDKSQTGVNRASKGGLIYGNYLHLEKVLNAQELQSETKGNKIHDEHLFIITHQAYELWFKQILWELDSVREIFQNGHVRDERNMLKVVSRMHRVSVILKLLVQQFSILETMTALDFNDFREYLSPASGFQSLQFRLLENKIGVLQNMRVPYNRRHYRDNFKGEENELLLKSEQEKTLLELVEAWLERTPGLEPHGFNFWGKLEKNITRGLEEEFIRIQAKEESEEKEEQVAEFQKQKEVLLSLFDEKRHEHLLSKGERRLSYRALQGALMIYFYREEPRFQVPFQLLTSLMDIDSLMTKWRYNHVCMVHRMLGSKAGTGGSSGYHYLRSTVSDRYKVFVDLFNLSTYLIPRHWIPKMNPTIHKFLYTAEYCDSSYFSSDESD

SMILES | IC50 (TDO [1]; 17 minutes, room temperature) [µM] | IC50 (IDO [2]; 17 minutes, room temperature) [µM] | IC50 (TDO [3]; 500 μM L-tryptophan) [µM] | IC50 (IDO [4]; [5]) [µM] | IC50 (TDO [1]) [µM] | IC50 (IDO [2]) [µM] | IC50 (TDO [3]) [µM] | IC50 (IDO [4]; [6]) [µM]
CC1(C)CN(c2cc(C(F)(F)F)cc3[nH]ncc23)CCN1S(C)(=O)=O [Compound 78] | < 3.16 | 3.24 to 31.6 | < 3.16 | < 3.16 | – | – | – | –
O=C1CCC2(CCN(c3cc(Cl)cc4[nH]ncc34)CC2)N1 [Compound 215] | < 3.16 | 3.24 to 31.6 | < 3.16 | 3.24 to 31.6 | – | – | – | –
CS(=O)(=O)N1CCC(c2cc(N3CCCC3)cc3[nH]ncc23)CC1 [Compound 383] | > 100 | > 100 | 32.4 to 100 | > 100 | – | – | – | –
CS(=O)(=O)NCCn1cc(-c2cc(Cl)cc3[nH]ncc23)cn1 [Compound 373] | 3.24 to 31.6 | > 100 | < 3.16 | 32.4 to 100 | – | – | – | –
O=S(=O)(C1CCCC1)N1CCN(c2cccc3[nH]ncc23)CC1 [Compound 17] | 3.24 to 31.6 | > 100 | 3.24 to 31.6 | 32.4 to 100 | – | – | – | –
CC(C)(C)CC(=O)Nc1cccc2[nH]ncc12 [Compound 4, N-(1H-indazol-4-yl)-3,3-dimethylbutanamide] | < 3.16 | > 100 | 32.4 to 100 | > 100 | – | – | – | –
CC(=O)Nc1ccc(C2CCN(c3cc(Cl)cc4[nH]ncc34)CC2)cc1 [Compound 441] | < 3.16 | > 100 | < 3.16 | < 3.16 | – | – | – | –
Cn1cc(-c2cc(Cl)cc3[nH]ncc23)cn1 [Compound 366] | 3.24 to 31.6 | > 100 | < 3.16 | 3.24 to 31.6 | – | – | – | –
COC(C)c1cc(Cl)cc2[nH]ncc12 (stereo not shown) [Compound 287] | 3.24 to 31.6 | > 100 | 3.24 to 31.6 | > 100 | – | – | – | –
Nc1ccnn1C1CCN(c2cc(Cl)cc3[nH]ncc23)CC1 [Compound 430] | < 3.16 | < 3.16 | 3.24 to 31.6 | > 100 | – | – | – | –
CC(=O)N1CCN(c2cc(Cl)cc3c(N)noc23)CC1 [Compound 303] | > 100 | > 100 | 3.24 to 31.6 | > 100 | – | – | – | –
O=C1NC(=O)C(C2CCN(c3cc(Cl)cc4[nH]ncc34)CC2)N1 (stereo not shown) [Compound 443] | < 3.16 | > 100 | < 3.16 | > 100 | – | – | – | –
O=c1[nH]c2ccccc2n1C1CCN(c2cc(Cl)cc3[nH]ncc23)CC1 [Compound 354] | < 3.16 | > 100 | < 3.16 | 3.24 to 31.6 | – | – | – | –
CS(=O)(=O)N1CCN(c2cc(C(F)(F)F)cc3[nH]ncc23)C2CCCCC21 (stereo not shown) [Compound 340] | > 100 | > 100 | 3.24 to 31.6 | 32.4 to 100 | – | – | – | –
CC(=O)N1C2CCC1CN(c1cc(Cl)cc3[nH]ncc13)C2 [Compound 231] | < 3.16 | 3.24 to 31.6 | < 3.16 | 3.24 to 31.6 | – | – | – | –
COCCc1cc(Cl)cc2[nH]ncc12 [Compound 288] | < 3.16 | > 100 | < 3.16 | > 100 | – | – | – | –
CC(=O)N(C)CC1CCCN(c2cc(Cl)cc3[nH]ncc23)C1 (stereo not shown) [Compound 286] | < 3.16 | > 100 | 3.24 to 31.6 | 3.24 to 31.6 | – | – | – | –
O=C1NCC2(CCN(c3cc(Cl)cc4[nH]ncc34)CC2)O1 [Compound 344] | < 3.16 | 3.24 to 31.6 | < 3.16 | 3.24 to 31.6 | – | – | – | –
Clc1cc(N2CCc3cnccc3C2)c2cn[nH]c2c1 [Compound 343] | < 3.16 | > 100 | < 3.16 | 32.4 to 100 | – | – | – | –
OC1(c2cc(Cl)cc3[nH]ncc23)CCCCC1 [Compound 273, 1-(6-chloro-1H-indazol-4-yl)cyclohexanol] | < 3.16 | 3.24 to 31.6 | < 3.16 | 3.24 to 31.6 | 0.0851 | 11.7 | 0.0135 | 9.55
OC(c1cc(Cl)cc2[nH]ncc12)C1CCOCC1 (stereo not shown) [Compound 299] | < 3.16 | > 100 | < 3.16 | > 100 | – | – | – | –
O=C1N(c2ccccc2)CNC12CCN(c1cc(Cl)cc3[nH]ncc13)CC2 [Compound 422] | < 3.16 | 3.24 to 31.6 | < 3.16 | < 3.16 | – | – | – | –
O=C1Nc2ccccc2NC12CCN(c1cc(Cl)cc3[nH]ncc13)CC2 [Compound 404] | < 3.16 | 32.4 to 100 | 3.24 to 31.6 | < 3.16 | – | – | – | –

More lines, now with the values ahead:

IC50 (TDO [1]; 17 minutes, room temperature) [µM] | IC50 (IDO [2]; 17 minutes, room temperature) [µM] | IC50 (TDO [3]; 500 μM L-tryptophan) [µM] | IC50 (IDO [4]; [5]) [µM] | IC50 (TDO [1]) [µM] | IC50 (IDO [2]) [µM] | IC50 (TDO [3]) [µM] | IC50 (IDO [4]; [6]) [µM] | SMILES
< 3.16 | 32.4 to 100 | 3.24 to 31.6 | > 100 | – | – | – | – | O=C(O)C1CCN(c2cc(Cl)cc3[nH]ncc23)CC1 [Compound 301]
< 3.16 | < 3.16 | < 3.16 | < 3.16 | – | – | – | – | CC1(C)CN(c2cc(C(F)F)cc3[nH]ncc23)CCN1S(C)(=O)=O [Compound 370]
< 3.16 | < 3.16 | < 3.16 | 3.24 to 31.6 | – | – | – | – | NC(=O)C1CCN(c2cc(Cl)cc3[nH]ncc23)CC1 [Compound 226]
< 3.16 | < 3.16 | < 3.16 | < 3.16 | – | – | – | – | CC1(C)CN(c2cc(Br)cc3[nH]ncc23)CCN1S(C)(=O)=O [Compound 91]
< 3.16 | 32.4 to 100 | < 3.16 | 32.4 to 100 | 0.245 | 51.3 | 0.055 | 38 | O=C1N[C@H]2CC[C@@H]1CN(c1cc(Cl)cc3[nH]ncc13)C2 [Compound 393, (1R,5S)-3-(6-chloro-1H-indazol-4-yl)-3,6-diazabicyclo[3.2.2]nonan-7-one]
< 3.16 | 3.24 to 31.6 | < 3.16 | 3.24 to 31.6 | – | – | – | – | CC(=O)NC1CCN(c2cc(Cl)cc3[nH]ncc23)C1 (stereo not shown) [Compound 198]
< 3.16 | 3.24 to 31.6 | < 3.16 | 3.24 to 31.6 | – | – | – | – | CNC(=O)C1CCN(c2cc(Cl)cc3[nH]ncc23)CC1 [Compound 249]
< 3.16 | > 100 | < 3.16 | < 3.16 | – | – | – | – | CS(=O)(=O)N1CC2(CN(c3cc(Cl)cc4[nH]ncc34)C2)C1 [Compound 395]
< 3.16 | 32.4 to 100 | < 3.16 | 3.24 to 31.6 | – | – | – | – | CC(=O)NC1CCN(c2cc(Cl)cc3[nH]ncc23)CC1 [Compound 250]
< 3.16 | > 100 | 3.24 to 31.6 | 32.4 to 100 | – | – | – | – | CS(=O)(=O)NCC1CCCN(c2cc(Cl)cc3[nH]ncc23)C1 (stereo not shown) [Compound 284]
< 3.16 | 3.24 to 31.6 | < 3.16 | 3.24 to 31.6 | – | – | – | – | O=C1CC2(CCN(c3cc(Cl)cc4[nH]ncc34)CC2)CN1 [Compound 280]
< 3.16 | 32.4 to 100 | < 3.16 | > 100 | – | – | – | – | CC(=O)N1CCN(c2cc(Cl)cc3[nH]ncc23)CC1CO (stereo not shown) [Compound 454]
< 3.16 | 3.24 to 31.6 | < 3.16 | 3.24 to 31.6 | – | – | – | – | CC1(C)CN(c2cc(Cl)cc3[nH]ncc23)CCC1NS(C)(=O)=O (stereo not shown) [Compound 336]
< 3.16 | 3.24 to 31.6 | < 3.16 | 3.24 to 31.6 | – | – | – | – | CC(=O)N1CC2(CCN(c3cc(Cl)cc4[nH]ncc34)CC2)C1 [Compound 359]
3.24 to 31.6 | > 100 | 3.24 to 31.6 | 32.4 to 100 | – | – | – | – | CN(CC1CCCN(c2cc(Cl)cc3[nH]ncc23)C1)S(C)(=O)=O (stereo not shown) [Compound 285]
